The values that follow come from US7776572B2, “Method for reducing loss of enzyme activity during storage” (Corning Incorporated, priority 1996, dated 2010).

One data set has as its system Horse IgG. The data set can be described thus: Protein binding by colloidal gold staining, coated medium binding polystyrene plates. The conditions noted are these: coated medium binding PS; IgG 10 μg/ml, pH 9.4. The essentials: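 Medium-binding polystyrene wells coated with non-ionic surfactant (0.1% w/v in isopropanol, dried), then exposed 30 min on a rocker to horse IgG at 10 μg/ml in 0.10M NaHCO3, pH9.4. Bound protein stained overnight with colloidal gold; absorbance at 550 nm.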

For data set [1], the system named is ^125I-IgG (goat anti-mouse). The data set can be described thus: Radiometric determination of IgG binding to surfactant-coated polystyrene microtiter wells. The conditions noted are these: for Total IgG binding, Non-Sterilized: coated polystyrene wells; for Total IgG binding, Non-Sterilized / Tight IgG binding, Non-Sterilized: not sterilized; for Total IgG binding, Non-Sterilized / Total IgG binding, Sterilized: after three PBS washes; for Total IgG binding, Sterilized / Tight IgG binding, Sterilized: gamma sterilized (1.5 Mrad); for Tight IgG binding, Sterilized / Tight IgG binding, Non-Sterilized: after two hours in PBS-Tween (0.05%).

In the next data set the test system is Fetal Bovine Serum (FBS). The data set can be described thus: Polymer blends molded into petri dishes, FBS protein binding by colloidal gold.
Data set [2] relates to BSA protein (Bovine Serum Albumin, Fraction V). The data set can be described thus: BSA binding to coated polystyrene 24-well plates at different pH, colloidal gold stain. The conditions noted are these: for Absorbance (550 nm) pH = 9.2: BSA 10 μg/ml in 0.10 M NaHCO3 buffer; for Absorbance (550 nm) pH = 7.4: BSA 10 μg/ml in 0.10 M PBS; for Absorbance (550 nm) pH = 4.6: BSA 10 μg/ml in 0.10 M acetate buffer.

The test system of another data set is IgG. The data set can be described thus: Coating durability using water washes, IgG binding by colloidal gold. As to conditions: for Absorbance (550 nm) Initial: coated polystyrene, no water wash; for Absorbance (550 nm) 1 Time 1 hr 23° C. / Absorbance (550 nm) 1 Time 24 hr 23° C. / Absorbance (550 nm) 1 Time 24 hr 37° C. / Absorbance (550 nm) 1 Time 24 hr 70° C.: dI H2O wash 1 time; for Absorbance (550 nm) 6 Times 30 min each 23° C.: dI H2O wash 6 times. The essentials: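 24-well polystyrene plates coated with surfactants; durability tested by water washes on a rocker. IgG incubated 30 minutes at 23° C. with rocking, then rinsed 3× with water.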

The next data set deals with MDCK cells. The data set can be described thus: Cytotoxicity of extracts of coated plates. The data set is classed as cell-based. As to conditions: media extract of coated plates (37° C., 48 hours), MDCK 72 hours, Gram Crystal Violet. As for the experimental part: Cytotoxicity experiments were performed using MDCK cells. The non-ionic surfactants tested were Pluronic L-121, L-122, and P-123; Span 80 and 85; and Brij 30, 72 and 93. These molecules were coated onto 24-well plates (Corning Costar #9447) from 0.1% (w/v) in isopropanol. Untreated polystyrene and normal tissue culture treated polystyrene (Corning Costar #25820) 24-well plates were used as controls. All plates were incubated at 37° C. for 48 hours with 2 ml/well of complete DMEM media containing 10% Fetal Bovine Serum (FBS). This incubation was performed in order to extract any potentially toxic compounds from the coated surface into the cell growth serum. The FBS solutions were then transferred to tissue culture treated polystyrene and each well was inoculated with ≈2×10^4 cells/well of MDCK cells, and then incubated at 37° C. for 72 hours in a 5% CO2 atmosphere. Cells were then stained with Gram Crystal Violet.

The mark [3] stands for this setting: blended at 5% into polypropylene, silver enhancer.
Where [4] appears, read: blended at 1% into ethylene vinyl acetate.
[5] abbreviates: blended at 5% into ethylene vinyl acetate, silver enhancer.

For PEO(4) SORBITOL MONO-STEARATE, the “IgG Protein Binding Absorbance (550 nm)” value with Horse IgG worked out at 0.00. In addition, in data set [1], the “Total IgG binding, Non-Sterilized” value is 37 ng/cm^2; the “Total IgG binding, Sterilized” value is recorded as 130 ng/cm^2; the “Tight IgG binding, Sterilized” value is 80 ng/cm^2; the “Tight IgG binding, Non-Sterilized” value is recorded as 18 ng/cm^2. Further, the “Bound Protein Absorbance (550 nm) FBS” value with Fetal Bovine Serum (FBS) (setting [3]) is 0.057. In addition, in data set [2], the “Absorbance (550 nm) pH = 9.2” value was determined as 0.00, the “Absorbance (550 nm) pH = 7.4” value turned out to be 0.00 and the “Absorbance (550 nm) pH = 4.6” value is 0.00. Further, in the data set with IgG, the “Absorbance (550 nm) Initial” value is reported as 0.00, the “Absorbance (550 nm) 1 Time 1 hr 23° C.” value was found to be 0.00, the “Absorbance (550 nm) 1 Time 24 hr 23° C.” value is listed as 0.02 and the “Absorbance (550 nm) 1 Time 24 hr 37° C.” value is reported as 0.10. Moreover, in the data set with IgG, the “Absorbance (550 nm) 1 Time 24 hr 70° C.” value is 0.10 and the “Absorbance (550 nm) 6 Times 30 min each 23° C.” value was found to be 0.10.

Consider SORBITOL MONO-OLEATE, for which the “IgG Protein Binding Absorbance (550 nm)” value with Horse IgG was determined as 0.00. Moreover, in data set [1], the “Total IgG binding, Non-Sterilized” value came out at 31 ng/cm^2; the “Total IgG binding, Sterilized” value worked out at 33 ng/cm^2; the “Tight IgG binding, Sterilized” value was 5 ng/cm^2; the “Tight IgG binding, Non-Sterilized” value worked out at 7 ng/cm^2. In addition, the “Bound Protein Absorbance (550 nm) FBS” value in the data set on Fetal Bovine Serum (FBS) (setting [4]) is given as 0.371. Besides, the “Bound Protein Absorbance (550 nm) FBS” value with Fetal Bovine Serum (FBS) (setting [5]) came out at 0.000. For the same compound, the “Bound Protein Absorbance (550 nm) FBS” value in the data set with Fetal Bovine Serum (FBS) (setting [3]) was 0.000. Besides, in data set [2], the “Absorbance (550 nm) pH = 9.2” value is given as 0.00, the “Absorbance (550 nm) pH = 7.4” value worked out at 0.00 and the “Absorbance (550 nm) pH = 4.6” value is reported as 0.00. Besides, the “cell growth and morphology” value in the data set on MDCK cells is “confluent cell growth with normal cell morphology”. Moreover, in the data set with IgG, the “Absorbance (550 nm) Initial” value was 0.00, the “Absorbance (550 nm) 1 Time 1 hr 23° C.” value was 0.00, the “Absorbance (550 nm) 1 Time 24 hr 23° C.” value is reported as 0.00 and the “Absorbance (550 nm) 1 Time 24 hr 37° C.” value was determined as 0.00. For the same compound, in the data set with IgG, the “Absorbance (550 nm) 1 Time 24 hr 70° C.” value stood at 0.00 and the “Absorbance (550 nm) 6 Times 30 min each 23° C.” value was determined as 0.00.

On to `CCCCCCCCCCCCOCCOCCOCCOCCO` [PEO(4) LAURYL ETHER], for which the “IgG Protein Binding Absorbance (550 nm)” value in the data set with Horse IgG was 0.00. In data set [1], the “Total IgG binding, Non-Sterilized” value worked out at 2 ng/cm^2; the “Total IgG binding, Sterilized” value was 10 ng/cm^2; the “Tight IgG binding, Sterilized” value is 4 ng/cm^2; the “Tight IgG binding, Non-Sterilized” value is 2 ng/cm^2. For the same compound, in data set [2], the “Absorbance (550 nm) pH = 9.2” value was found to be 0.00, the “Absorbance (550 nm) pH = 7.4” value was determined as 0.00 and the “Absorbance (550 nm) pH = 4.6” value came to 0.00. In the data set with MDCK cells, the “cell growth and morphology” value is recorded as “confluent cell growth with normal cell morphology”.

For the compound PEO(20) SORBITOL TRI-STEARATE, the “IgG Protein Binding Absorbance (550 nm)” value with Horse IgG is 0.00. Also, in data set [1], the “Total IgG binding, Non-Sterilized” value amounted to 5 ng/cm^2; the “Total IgG binding, Sterilized” value is listed as 7 ng/cm^2; the “Tight IgG binding, Sterilized” value was found to be 4 ng/cm^2; the “Tight IgG binding, Non-Sterilized” value is given as 2 ng/cm^2. In data set [2], the “Absorbance (550 nm) pH = 9.2” value stood at 0.00, the “Absorbance (550 nm) pH = 7.4” value was 0.00 and the “Absorbance (550 nm) pH = 4.6” value was 0.00. For the same compound, in the data set on IgG, the “Absorbance (550 nm) Initial” value is 0.00, the “Absorbance (550 nm) 1 Time 1 hr 23° C.” value was 0.00, the “Absorbance (550 nm) 1 Time 24 hr 23° C.” value is reported as 0.02 and the “Absorbance (550 nm) 1 Time 24 hr 37° C.” value is on record as 0.10. Also, in the data set on IgG, the “Absorbance (550 nm) 1 Time 24 hr 70° C.” value stood at 0.10 and the “Absorbance (550 nm) 6 Times 30 min each 23° C.” value was 0.10.

For the compound `CCCCCCCC/C=C\CCCCCCCCOCCOCCO` [PEO(2) OLEYL ETHER], the “IgG Protein Binding Absorbance (550 nm)” value with Horse IgG was determined as 0.00. Moreover, in data set [1], the “Total IgG binding, Non-Sterilized” value is given as 7 ng/cm^2; the “Total IgG binding, Sterilized” value was 22 ng/cm^2; the “Tight IgG binding, Sterilized” value is listed as 4 ng/cm^2; the “Tight IgG binding, Non-Sterilized” value turned out to be 5 ng/cm^2. Further, the “Bound Protein Absorbance (550 nm) FBS” value with Fetal Bovine Serum (FBS) (setting [4]) is 0.291. In the data set on Fetal Bovine Serum (FBS) (setting [5]), the “Bound Protein Absorbance (550 nm) FBS” value turned out to be 0.000. Further, the “Bound Protein Absorbance (550 nm) FBS” value in the data set on Fetal Bovine Serum (FBS) (setting [3]) was found to be 0.000. The “Bound Protein Absorbance (550 nm) FBS” value with Fetal Bovine Serum (FBS) (blended at 5% into polystyrene) is on record as 0.015. In addition, in data set [2], the “Absorbance (550 nm) pH = 9.2” value is listed as 0.00, the “Absorbance (550 nm) pH = 7.4” value stood at 0.00 and the “Absorbance (550 nm) pH = 4.6” value is on record as 0.00. Besides, the “cell growth and morphology” value with MDCK cells is listed as “confluent cell growth with normal cell morphology”.
